For two molecules, melting point results are on record in US20070167490A1, “Imino ether derivative compounds and drugs containing the compounds as the active ingredient” (Ono Pharmaceutical Co Ltd, priority 2003, published 2007).

One may read the melting point as the temperature, or range, at which the solid turns liquid.

Take `CC/C(=N\OCCOc1cccc(CC(=O)O)c1)c1ccc(-c2cccs2)cc1` [14(30), (3-{2-[({(1E)-1-[4-(2-thienyl)phenyl]propylidene}amino)oxy]ethoxy}phenyl)acetic acid]: the melting point was 117 to 120 °C.

For the molecule `CC/C(=N\OCCOc1cccc(CC(=O)O)c1)c1ccc(-n2cccn2)cc1` [14(35), (3-{2-[({(1E)-1-[4-(1H-pyrazol-1-yl)phenyl]propylidene}amino)oxy]ethoxy}phenyl)acetic acid], the melting point lay in the range of 143.5 to 147 °C.
